Laboratory results: patent US11241501B2, “Anticancer prodrug for overcoming drug resistance” (Korea University Research and Business Foundation, priority 2018, dated 2022)

Tests used:
[1] = test system: cancer cells (A549 and HepG2), normal cells (NHDF and IMR90); test: Cellular uptake of compounds in normal and cancer cells; format: cell-based, human; settings: 5 μM, 6 h, A549, HepG2 vs NHDF
Method: Cells were treated with 5 μM of each compound for 6 h. Fluorescence intensities were determined using SpectraMAX 13;
(§1) To analyze the cellular fluorescence levels upon compound treatment, cells were seeded in plates 1 day before treatment with the compounds. Cells were then treated with each compound for the indicated dose or time course. After the experiment, cells were washed with ice-cold PBS, trypsinized, and centrifuged. The cell pellet was re-suspended in 300 μL of PBS and then analyzed using a multiplate reader (SpectraMAX I3x). The results were normalized according to the number of cells.

HepG2 cells [2] = test: Confocal intracellular localization with MitoTracker; format: cell-based, human; settings: HepG2, 5 μM, 24 hr
Method: (§2) HepG2 cells treated with each compound (5 μM, 24 hr) were co-stained with the mitochondrial marker MitoTracker (green). Boxed regions show co-localization of the test compounds and probe within the mitochondria. […] Experiments were carried out in triplicate and the data shown represent means±SD. **p<0.01. […] HepG2 cells were incubated with BNPP (100 μM) for 2 hr prior to C1 treatment. **p<0.01. […] Cleaved caspase-3 and PARP-1 levels were examined to assess apoptosis induction. C, cleaved.
Cells were seeded on glass chamber slides (Nalgene Nunc) followed by probe treatment. After 48 h, the cells were fixed with 4% formaldehyde, and blocked with 2% bovine serum albumin-PBS for 30 min. The mitochondria were stained using MitoTracker™ Green FM (Invitrogen, USA) for 30 min. Fluorescent images were obtained using a confocal laser scanning microscope (Carl Zeiss MicroImaging, Inc., Germany).

[3] = test system: MCF7/Dox xenograft tumors; test: Independent comparative xenograft study of C1-C4; format: in vivo, mice; settings: n=5 per group, FIG. 23C
Excerpt: Tumors are shown (right). […] C1 injection led to a 58% reduction in tumor growth, which was statistically greater than the reductions seen in the case of C2 (16%), C3 (9%), C4 (6%) and DMSO (0%) tested under otherwise identical conditions.

MCF7 and MCF7/Dox cells = test: Intracellular accumulation, fluorescence assay; format: cell-based, human; settings: up to 12 hr after treatment
Method: (§3) Fluorescence intensities were measured with SpectraMAX 13. Data represent means±SD. **p<0.01. […] Data represent means±SD. **[…]. […] Data represent the mean±SD (n=3 experimental replicates). *p<0.05, **p<0.01. […] MCF7/Dox cells were treated with C1 or C3 as indicated, and the cytosolic (C) and mitochondrial (M) fractions were subjected to immunoblot assay. COX-IV and tubulin were used as markers for the mitochondria and cytosol fractions, respectively.
Mito-tracker (green) was utilized to show the mitochondria;
as §1

MCF7 cells = test: Colony formation assay; format: cell-based, human; settings: 10 days
Method: (§4) Cells were seeded in 24 well plates at 2×10^5 cells per well and were allowed to adhere for at least 24 h, growth medium was replaced with medium containing C1 or its analogues at the indicated concentrations and times, and cell viability was assessed via the WST-1 assay (Roche Diagnostics, Laval, QC, Canada). For the colony formation assay, cells were seeded in 6-well plates. After 24 h, cells were maintained in the presence of each probe or vehicle dimethyl sulfoxide (DMSO) for 10 days. Colonies were fixed with methanol for 10 min and stained with 0.05% crystal violet in 20% ethanol.

HepG2 cells [4] = test: WST cell viability assay; format: cell-based, human
Method: as §2, §4

MCF7/Dox cells = test: Cytochrome c release from mitochondria, immunoblot; format: cell-based, human
Method: as §3
Immunoblot analyses were performed using antibodies specific for phosphorylated serine 293 PDH-EI (ab92696), p21^Waf1 (sc-397), cleaved PARP (5625), cleaved caspase-3 (9664), COX-IV (4850), and Cytochrome c (4280). They were purchased from Abcam (Cambridge, UK), Santa Cruz Biotechnology (Texas, USA) or Cell Signaling Technology (Massachusetts, USA). Anti-tubulin antibodies were obtained from Sigma-Aldrich (St. Louis, USA). Briefly, cells were washed twice in ice-cold PBS and lysed in a radioimmunoprecipitation assay buffer containing 50 mM Tris/HCl (pH 7.5), 150 mM NaCl, 0.1% sodium dodecyl sulfate (SDS), 1% Triton X-100, 1% sodium deoxycholate, and protease inhibitor mixture. After sonification, the lysate was centrifuged, and the supernatant was recovered and loaded onto a 12% SDS-polyacrylamide gel for electrophoresis. […]

[5] = test system: p21^Waf1 and phosphorylated PDH levels; test: Immunoblot assay of p21Waf1 and phosphorylated PDH; format: cell-based, human
Method: as §2
Immunoblot analyses were performed using antibodies specific for phosphorylated serine 293 PDH-EI (ab92696), p21^Waf1 (sc-397), cleaved PARP (5625), cleaved caspase-3 (9664), COX-IV (4850), and Cytochrome c (4280). They were purchased from Abcam (Cambridge, UK), Santa Cruz Biotechnology (Texas, USA) or Cell Signaling Technology (Massachusetts, USA). Anti-tubulin antibodies were obtained from Sigma-Aldrich (St. Louis, USA). Briefly, cells were washed twice in ice-cold PBS and lysed in a radioimmunoprecipitation assay buffer containing 50 mM Tris/HCl (pH 7.5), 150 mM NaCl, 0.1% sodium dodecyl sulfate (SDS), 1% Triton X-100, 1% sodium deoxycholate, and protease inhibitor mixture. After sonification, the lysate was centrifuged, and the supernatant was recovered and loaded onto a 12% SDS-polyacrylamide gel for electrophoresis.

| Structure (SMILES) | tumor cell selectivity of cellular uptake [1] | intracellular (mitochondrial) localization (HepG2 cells [2]) | reduction in tumor growth [3] [%] | intracellular accumulation in MCF7/Dox versus MCF7 (MCF7 and MCF7/Dox cells) | colony-forming ability (MCF7 cells) | IC50 (HepG2 cells [4]; HepG2 cells, WST assay, read-out: IC50 (cytotoxicity)) [µM] | cell death in cell-survival assays (HepG2 cells [4]; compared with C3-C6) | cytochrome c release, cleavage of caspase-3 and PARP-1, decrease in cell viability (MCF7/Dox cells) | effect on p21^Waf1 and phosphorylated PDH levels [5] |
| --- | --- | --- | --- | --- | --- | --- | --- | --- | --- |
| C#CCC(OC(=O)N[C@H]1C[C@H](O[C@H]2C[C@](O)(C(=O)CO)Cc3c(O)c4c(c(O)c32)C(=O)c2c(OC)cccc2C4=O)O[C@@H](C)[C@H]1O)c1ccc(NC(=O)C(C)C)cc1 (stereo partly drawn) [C4] | no cellular selectivity | no detectable mitochondrial localization | 6 |  |  |  |  |  |  |
| C#CCC(OC(=O)N[C@H]1C[C@H](O[C@H]2C[C@](O)(C(=O)CO)Cc3c(O)c4c(c(O)c32)C(=O)c2c(OC)cccc2C4=O)O[C@@H](C)[C@H]1O)c1ccc(NC(=O)C(Cl)Cl)cc1 (stereo partly drawn) [C2] | no cellular selectivity | no detectable mitochondrial localization | 16 | substantially lower level in MCF7/Dox than in MCF7 | showed this effect only in the case of the MCF7 cells | 10.6 ± 1.03 | greater cell death in a dose-dependent manner |  |  |
| COc1cccc2c1C(=O)c1c(O)c3c(c(O)c1C2=O)C[C@@](O)(C(=O)CO)C[C@@H]3O[C@H]1C[C@H](NC(=O)OC(Cc2cn(CCCCCC[P+](c3ccccc3)(c3ccccc3)c3ccccc3)nn2)c2ccc(NC(=O)C(C)C)cc2)[C@H](O)[C@H](C)O1 (stereo partly drawn) [C3] | taken up specifically by cancer cells | located predominantly within the mitochondria | 9 |  |  |  |  | fails to evoke these effects | no effect on p21^Waf1 or PDH phosphorylation |
